Patent publication US11891377B1, “Pyrrolo[3,2-c][2,7]naphthyridine-2-carboxylic acid compounds as CK2 inhibitors” (KING FAISAL UNIVERSITY, priority 2023, dated 2024)

Assays:
HCT116 (colon) = assay: In vitro cytotoxic activity (MTT) assay, HCT116; format: cell-based; settings: Homo sapiens, HCT-116; HCT116 cells, exposed for 96 hours; read-out: IC50, 50% inhibition of cell proliferation, HCT116 (colon)
Description: (§1) Compounds 1-16 were screened for their in vitro cytotoxic activity utilizing a 3-(4,5-dimethyl-thiazol-2-yl)-2,5-diphenyltetrazolium bromide (MTT) assay against selected cancer human cell lines consisting of PC3 (prostate), HCT116 (colon), A375 (melanoma), H1299 (lung), MIAPaCa-2 (pancreas), HL60 (leukemia), MCF7 (breast), MDA-MB-231 (breast) (T. Mosmann, J. Immunol. Meth., 1983, 65, 55-63). The cells were cultured at 37° C. in RMPI1640 medium supplemented with 10% fetal bovine serum, 50 IU/mL penicillin, and 50 μg/mL streptomycin in a 5% CO2 incubator. All cells were sub-cultured 3 times/week by trypsinisation. Viable cells were seeded and allowed to adhere for 12 h before a test drug was added in 96-well plates at an initial density of 1.0×10^5 cells/mL. Tumour cell lines were separately exposed to various concentrations of the tested compounds followed by incubation at a temperature of 37° C. during 96 h inside a medium of fresh RMPI 1640. Cells were subsequently incubated at 37° C. using MTT at 0.5 mg/mL during 4 h. After removal of supernatant, formazan crystals were dissolved in isopropanol and the optical density was measured at 570 nm. CX-4945 was used as a positive control.

H1299 (lung) = assay: In vitro cytotoxic activity (MTT) assay, H1299; format: cell-based; settings: Homo sapiens, NCI-H1299; H1299 cells, exposed for 96 hours; read-out: IC50, 50% inhibition of cell proliferation, H1299 (lung)
Description: as §1

[1] = molecular target: T1, recombinant human CK2 (RRββ-holoenzyme) (Homo sapiens, UniProt P68400); assay: CK2 Kinase Assay (radiometric, [γ-33P]ATP); format: biochemical; settings: final ATP concentration 15 μM, 10 min at 30° C.; read-out: protein kinase CK2 IC50
T1 construct: purchased Millipore
T1 sequence (P68400 whole entry): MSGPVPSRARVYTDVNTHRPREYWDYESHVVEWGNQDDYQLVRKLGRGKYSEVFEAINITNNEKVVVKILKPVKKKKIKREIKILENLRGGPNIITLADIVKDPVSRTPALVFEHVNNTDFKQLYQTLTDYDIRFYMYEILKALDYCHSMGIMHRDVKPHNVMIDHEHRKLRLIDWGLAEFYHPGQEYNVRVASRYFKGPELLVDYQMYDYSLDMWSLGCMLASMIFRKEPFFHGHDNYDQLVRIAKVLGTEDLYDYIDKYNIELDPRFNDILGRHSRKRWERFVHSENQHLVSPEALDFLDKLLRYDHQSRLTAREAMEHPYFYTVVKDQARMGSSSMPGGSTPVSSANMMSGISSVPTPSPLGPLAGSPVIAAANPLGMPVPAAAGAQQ
T1 sequence (P67870 whole entry partner): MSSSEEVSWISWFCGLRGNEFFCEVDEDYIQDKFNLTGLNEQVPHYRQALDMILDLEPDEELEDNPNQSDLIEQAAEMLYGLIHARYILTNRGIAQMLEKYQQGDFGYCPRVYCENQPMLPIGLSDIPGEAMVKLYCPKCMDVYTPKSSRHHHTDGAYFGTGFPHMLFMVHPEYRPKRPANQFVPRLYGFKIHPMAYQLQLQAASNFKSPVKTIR
Description: CK2 Kinase Assay was conducted using the protocol as described in Pierre F. et al; J. Med. Chem. 2011, 54, 635-654. The tested compounds in aqueous solution were added at a volume of 10 μL to a reaction mixture comprising 10 μL of assay dilution buffer (ADB; 20 mM MOPS, pH 7.2, 25 mM β-glycerol phosphate, 5 mM EGTA, 1 mM sodium orthovanadate, and 1 mM dithiothreitol), 10 μL of substrate peptide (RRRDDDSDDD, dissolved in ADB at a concentration of 1 mM), 10 μL of recombinant human CK2 (RRββ-holoenzyme, 25 ng dissolved in ADB; Millipore). Reactions were initiated by the addition of 10 μL of ATP solution (90% 75 mMMgCl2, 75 μM ATP (final ATP concentration: 15 μM) dissolved in ADB; 10% [γ-33P] ATP (stock 1 mCi/100 μL; 3000 Ci/mmol (Perkin-Elmer) and maintained for 10 min at 30° C. The reactions were quenched with 100 μL of 0.75% phosphoric acid and then transferred to and filtered through a phosphor cellulose filter plate (Millipore). After washing each well five times with 0.75% phosphoric acid, the plate was dried under vacuum for 5 min and, following the addition of 15 μL of scintillation fluid to each well, the residual radioactivity was measured using a Wallac luminescence counter. The ICso values were derived from eight concentrations of test inhibitors.

MDA-MB-231 (breast) = assay: In vitro cytotoxic activity (MTT) assay, MDA-MB-231; format: cell-based; settings: Homo sapiens; MDA-MB-231 cells, exposed for 96 hours; read-out: IC50, 50% inhibition of cell proliferation, MDA-MB-231 (breast)
Description: as §1

MIAPaCa-2 (pancreas) = assay: In vitro cytotoxic activity (MTT) assay, MIAPaCa-2; format: cell-based; settings: Homo sapiens, MIA PaCa-2; MIAPaCa-2 cells, exposed for 96 hours; read-out: IC50, 50% inhibition of cell proliferation, MIAPaCa-2 (pancreas)
Description: as §1

HL60 (leukemia) = assay: In vitro cytotoxic activity (MTT) assay, HL60; format: cell-based; settings: Homo sapiens, HL-60; HL60 cells, exposed for 96 hours; read-out: IC50, 50% inhibition of cell proliferation, HL60 (leukemia)
Description: as §1

MCF7 (breast) = assay: In vitro cytotoxic activity (MTT) assay, MCF7; format: cell-based; settings: Homo sapiens; MCF7 cells, exposed for 96 hours; read-out: IC50, 50% inhibition of cell proliferation, MCF7 (breast)
Description: as §1

PC3 (prostate) = assay: In vitro cytotoxic activity (MTT) assay, PC3; format: cell-based; settings: Homo sapiens, PC-3; PC3 cells, exposed for 96 hours; read-out: IC50, 50% inhibition of cell proliferation, PC3 (prostate)
Description: as §1

A375 (melanoma) = assay: In vitro cytotoxic activity (MTT) assay, A375; format: cell-based; settings: Homo sapiens, A-375; A375 cells, exposed for 96 hours; read-out: IC50, 50% inhibition of cell proliferation, A375 (melanoma)
Description: as §1

IC50 [1]: 0.035 µM
SMILES: O=C(O)c1cc2nc(Nc3cccc(Cl)c3)c3cnccc3c2[nH]1 [Compound 1, 5-((3-chlorophenyl)amino)-1H-pyrrolo[3,2-c][2,7]naphthyridine-2-carboxylic Acid]
IC50 (HCT116 (colon)): 1.3 µM | IC50 (H1299 (lung)): 1.2 µM | IC50 (MDA-MB-231 (breast)): 3.3 µM | IC50 (MIAPaCa-2 (pancreas)): 1.1 µM | IC50 (HL60 (leukemia)): 2.6 µM | IC50 (MCF7 (breast)): 3.9 µM | IC50 (PC3 (prostate)): 2.1 µM | IC50 (A375 (melanoma)): 2.5 µM
